These compounds were tested against T1, full-length human PAFR (Homo sapiens, UniProt P25105) (assay: PAF Binding Assay). Conditions: 3H-PAF competition, membranes from CHO cells over-expressing human PAFR, SPA beads.
T1 construct: PAFR was derived from membranes from CHO cells over-expressing the full-length human PAFR; expressed in transfected cells; host or cells: CHO cells (membranes)
Description: PAFR was derived from membranes from CHO cells over-expressing the full-length human PAFR. Supernatant from the cell homogenate pellet (3000×g) is pelleted (35000×g), and the resulting pellet is resuspended in a Tris HCl buffer (50 mM Iris HCl pH 7.4, 5 mM MgCl2, 30% glycerol) to afford a parent PAFR stock that is diluted in PAF binding buffer (50 mM HEPES pH 7.0, 10 mM MgCl2, 5 mM CaCl2, 5 mM D-(+)glucose, 0.25% fatty-acid free BSA) to afford a PAFR assay stock (120 μg/mL) prior to each use.
Binding buffer (48 μL) and competitor compound (i.e., the compound to be tested) in DMSO (2 μL) were added to a 96-well plate. Cold PAF C-18 (200 nM final concentration) was used to determine non-specific binding. 25000 cpm of ^3H-PAF (25 μL of a stock solution in PAF binding buffer) was added to all wells, and the plates sealed and shaken at rt for 5 min. PAFR assay stock (3 μg/well) was added, and the plate was sealed and shaken at rt for 2 h. SPA beads^1 (10 μL of a 25 mg/mL suspension in binding buffer) were added to all wells, and the plates were sealed and shaken for 30 min. The plates were centrifuged (1900 rpm for 5 min.), allowed to stand for 30 min. and read on a Microbeta TriLux counter.
Specific binding is defined as total binding minus non-specific binding. Total binding was the amount of ^3H-PAF bound to SPA beads in the absence of competitor; non-specific binding was ^3H-PAF bound in the presence of 30 μM Compound A.^2 The IC50 values were obtained by computer analysis of the experimental data.^3 Percent inhibition was calculated as 100−[(Sample-Non-specific bound)/(Total bound Non-specific bound)×100]

T1 sequence (P25105 whole entry): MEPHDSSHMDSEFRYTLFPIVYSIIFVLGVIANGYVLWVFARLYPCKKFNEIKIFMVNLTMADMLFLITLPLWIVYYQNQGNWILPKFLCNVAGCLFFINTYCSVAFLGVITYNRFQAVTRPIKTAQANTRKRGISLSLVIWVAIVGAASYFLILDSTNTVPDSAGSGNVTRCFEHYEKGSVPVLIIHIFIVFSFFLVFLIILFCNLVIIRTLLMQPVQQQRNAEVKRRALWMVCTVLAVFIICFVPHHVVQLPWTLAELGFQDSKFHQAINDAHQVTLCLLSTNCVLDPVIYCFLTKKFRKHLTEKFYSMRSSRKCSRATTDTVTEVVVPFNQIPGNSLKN

Compound | IC50 [nM]
CC(C)c1nc2cc(C(=O)N3CCC(c4cccnc4)C3)ccc2n1-c1ccc(OC(F)(F)F)cc1 (single isomer, unassigned) [Example 1c, 2-isopropyl-5-[(3-pyridin-3-ylpyrrolidin-1-yl)carbonyl]-1-[4-(trifluoromethoxy)phenyl]-1H-benzimidazole] | 11
O=C(c1ccc2c(c1)nc(-c1ccc(OC(F)(F)F)cc1)n2C1CCC1)N1CCC(c2cccnc2)C1 (stereo not drawn) [Example 1Fr, 1-cyclobutyl-5-[(3-pyridin-3-ylpyrrolidin-1-yl)carbonyl]-2-[4-(trifluoromethoxy)phenyl]-1H-benzimidazole] | 9
CC(C)n1c(-c2ccc(OC(F)(F)F)cc2)nc2cc(C(=O)N3CCC(O)(c4cccnc4)C3)ccc21 (stereo not drawn) [Example 1Qa, 1-({1-isopropyl-2-[4-(trifluoromethoxy)phenyl]-1H-benzimidazol-5-yl}carbonyl)-3-pyridin-3-ylpyrrolidin-3-ol] | 9

Continued, values first:

IC50 [nM] | Compound
2 | CC(C)n1c(-c2ccc(OC(F)(F)F)cc2)nc2cc(C(=O)N3CCC(c4cccnc4)C3)ccc21 (single isomer, unassigned) [Example 1Ar, 1-isopropyl-5-[(3-pyridin-3-ylpyrrolidin-1-yl)carbonyl]-2-[4-(trifluoromethoxy)phenyl]-1H-benzimidazole]
10 | CC1(n2c(-c3ccc(OC(F)(F)F)cc3)nc3cc(C(=O)N4CCC(c5cccnc5)C4)ccc32)CC1 (stereo not drawn) [Example 1Gr, 1-(1-methylcyclopropyl)-5-[(3-pyridin-3-ylpyrrolidin-1-yl)carbonyl]-2-[4-(trifluoromethoxy)phenyl]-1H-benzimidazole]

Same assay, conditions: comparison of the resolved enantiomers, in words

IC50 results in the PAF Binding Assay, slower vs faster eluting enantiomer | Compound
faster eluting enantiomer was preferred | CC(C)n1c(-c2ccc(OC(F)(F)F)cc2)nc2cc(C(=O)N3CCC(c4cccnc4)C3)ccc21 (single isomer, unassigned) [Example 1Ar, 1-isopropyl-5-[(3-pyridin-3-ylpyrrolidin-1-yl)carbonyl]-2-[4-(trifluoromethoxy)phenyl]-1H-benzimidazole]

From patent publication US8470819B2, “Benzimidazole and aza-benzimidazole carboxamides” (Merck Sharp & Dohme Corp., priority 2008, dated 2013)
